Where a name gives a salt, the structure may show the parent alone.
Key:
Format in all cases: in vivo, BALB/c mice
[1] = system: anti-OVA-specific IgE antibody; assay: Allergy inducing activity test: anti-OVA-specific IgE antibody in serum of OVA-immunized mice (DS mouse IgE ELISA (OVA) kit); conditions: for anti-OVA-specific IgE antibody production: after secondary immunization, OVA 5 μg + compound 0.256 μmol in 5% αCD-added saline (Addavax mixed with saline at 1:1), dorsal-subcutaneous, compared to OVA single administration group; for allergy inducing activity as compared to Addavax: conclusion from IgE after secondary immunization, compound in 5% αCD-added saline
Experimental: 8-Week-old female BALB/c mice were divided into groups (N=6), and each group was primarily immunized by dorsal-subcutaneous administration of (1) ovalbumin (OVA) (5 μg) dissolved in saline as an antigen (OVA single administration group), (2) OVA 5 μg and Addavax™ (mixed with saline at 1:1) dissolved in saline (Addavax™ administration group) as positive control adjuvant, (3) OVA 5 μg and SZ137 0.256 μmol dissolved or dispersed in 5% α-cyclodextrin (hereinafter to be simply referred to as αCD)-added saline (SZ137 administration group), (4) OVA (5 μg) and SZ138 (0.256 μmol) dissolved or dispersed in 5% αCD-added saline (SZ138 administration group), (5) OVA (5 μg) and SZ142 (0.256 μmol) dissolved or dispersed in 5% αCD-added saline (SZ142 administration group), (6) OVA (5 μg) and SZ144 (0.256 μmol) dissolved or dispersed in 5% αCD-added saline (SZ144 administration group), (7) OVA (5 μg) and SZ145 (0.256 μmol) dissolved or dispersed in 5% αCD-added saline (SZ145 administration group), (8) OVA (5 μg) and SZ146 (0.256 μmol) dissolved or dispersed in 5% αCD-added saline (SZ146 administration group), (9) OVA (5 μg) and SZ147 (0.256 μmol) dissolved or dispersed in 5% αCD-added saline (SZ147 administration group), (10) OVA (5 μg) and SZ148 (0.256 μmol) dissolved or dispersed in 5% αCD-added saline (SZ148 administration group), each per mouse. Two week later, the secondary immunization was carried out by dorsal-subcutaneous administration of solutions or dispersions similar to those of the above-mentioned (1)-(10) again. Two weeks from the secondary immunization, the whole blood was extracted under anesthesia, and the obtained serum sample was measured for anti-OVA-specific IgG1 subclass antibody, anti-OVA-specific IgG2a subclass antibody, and anti-OVA-specific IgE antibody.
The measurement method of the anti-OVA-specific IgE antibody in Experimental Example 1 and the following Experimental Examples 2-5, 8-10 is as follows.
DS mouse IgE ELISA (OVA) kit manufactured by DS Pharma Biomedical Co., Ltd. was used. The protocol is briefly shown below.
The serum sample and a standard reagent for drawing an analytical curve are diluted with a buffer and, after stirring, left standing at room temperature for 10 min. The sample and the standard solution are added to a plate bound with an IgE capture antibody in advance and, after stirring, the mixture is left standing at room temperature for 60 min. The mixture is washed three times with wash, HRP-labeled OVA is added, and the mixture is left standing at room temperature for 30 min. The mixture is washed three times with wash, a substrate solution is added, and the mixture is left standing in dark at room temperature for 30 min. A reaction quenching liquid is added, the mixture is stirred, and the absorbance (OD Value=450 nm) is immediately measured.
The standard used is one attached to the kit, the standard curve is drawn from the measured OD Value, and the concentration is calculated. […]

[2] = system: anti-OVA-specific IgG2a subclass antibody; assay: Adjuvant activity test: anti-OVA-specific IgG2a subclass antibody in serum of OVA-immunized mice (ELISA); conditions: after secondary immunization, serum 2 weeks later; OVA 5 μg + compound 0.256 μmol in 5% αCD-added saline (Addavax mixed with saline at 1:1), dorsal-subcutaneous; compared to OVA single administration group
[3] = system: anti-OVA-specific IgG1 subclass antibody; assay: Adjuvant activity test: anti-OVA-specific IgG1 subclass antibody in serum of OVA-immunized mice (ELISA); conditions: after secondary immunization, serum 2 weeks later; OVA 5 μg + compound 0.256 μmol in 5% αCD-added saline (Addavax mixed with saline at 1:1), dorsal-subcutaneous; compared to OVA single administration group
[4] = system: anti-OVA-specific IgG1 subclass antibody; assay: as above; conditions: after primary immunization, serum 2 weeks later; OVA 5 μg + compound 0.256 μmol in 5% αCD-added saline (Addavax mixed with saline at 1:1), dorsal-subcutaneous; compared to OVA single administration group
[5] = system: anti-OVA-specific IgG2a subclass antibody; assay: Adjuvant activity test: anti-OVA-specific IgG2a subclass antibody in serum of OVA-immunized mice (ELISA); conditions: after primary immunization, serum 2 weeks later; OVA 5 μg + compound 0.256 μmol in 5% αCD-added saline (Addavax mixed with saline at 1:1), dorsal-subcutaneous; compared to OVA single administration group

SMILES | anti-OVA-specific IgE antibody production [1] | allergy inducing activity as compared to Addavax [1] | anti-OVA-specific IgG2a subclass antibody production [2] | anti-OVA-specific IgG1 subclass antibody production [3] | anti-OVA-specific IgG1 subclass antibody production [4] | anti-OVA-specific IgG2a subclass antibody production [5]
CCCCCCCCCCCCCCCCCCCCCC(=O)N[C@@H](CCCNC(=N)N)C(=O)NCCCCCCCCCCCC.Cl [SZ138, N-[(1S)-1-(dodecylcarbamoyl)-4-guanidino-butyl]docosanamide hydrochloride] | an increase in the anti-OVA-specific IgE antibody production was not observed | may have a lower allergy inducing activity | showed a tendency to increase | showed a tendency to increase | – | –
CCCCCCCCCCCCCCCCCCCCCC(=O)N[C@@H](CC(C)C)C(=O)NCCCCCCCCCCC [SZ142, N-[(1S)-3-methyl-1-(undecylcarbamoyl)butyl]docosanamide] | an increase in the anti-OVA-specific IgE antibody production was not observed | may have a lower allergy inducing activity | showed a tendency to increase | showed a tendency to increase | – | –
CCCCCCCCCCCCCCCC(=O)N[C@@H](CC(C)C)C(=O)NCCCCCCCCCCCC [SZ144, N-[(1S)-1-(dodecylcarbamoyl)-3-methyl-butyl]hexadecanamide] | an increase in the anti-OVA-specific IgE antibody production was not observed | may have a lower allergy inducing activity | showed a tendency to increase | showed a tendency to increase | – | –
CCCCCCCCCCCCCCCCCCCCCC(=O)NCC(C)(C)C(=O)NCCCCCCCCCCCC [SZ148, N-[3-(dodecylamino)-2,2-dimethyl-3-oxo-propyl]docosanamide] | an increase in the anti-OVA-specific IgE antibody production was not observed | may have a lower allergy inducing activity | showed a tendency to increase | showed a tendency to increase | – | –
CCCCCCCCCCCCCCCC(=O)N[C@@H](CCCCN)C(=O)NCCCCCCCCCCCC.Cl [SZ153, N-[(1S)-5-amino-1-(dodecylcarbamoyl)pentyl]hexadecanamide hydrochloride] | an increase in the anti-OVA-specific IgE antibody production was not observed | may have a lower allergy inducing activity | significantly increased | significantly increased | – | –
CCCCCCCCCCCCCCCCCC(=O)NCC(C)(C)C(=O)NCCCCCCCCCCCC [SZ204, N-[3-(dodecylamino)-2,2-dimethyl-3-oxo-propyl]octadecanamide] | – | – | tended to increase | significant enhancement | tended to increase | tended to increase
CCCCCCCCCCCCCCCCCC(=O)N[C@@H](CCCCNC(=N)N)C(=O)NCCCCCCCCCCCC.Cl [SZ205, N-[(1S)-1-(dodecylcarbamoyl)-5-guanidino-pentyl]octadecanamide hydrochloride] | – | – | significant enhancement | significant enhancement | significant enhancement | significant enhancement
CCCCCCCCCCCCNC(=O)[C@H](CCCNC(=N)N)N(CCCCCCC)CCCCCCC [SZ207, (2S)-2-(diheptylamino)-N-dodecyl-5-guanidino-pentanamide dihydrochloride] | – | – | significant enhancement | significant enhancement | tended to increase | tended to increase
CCCCCCCCCCCCCCCCCCCCCC(=O)NCCc1ccncc1.Cl [SZ209, N-[2-(4-pyridyl)ethyl]docosanamide hydrochloride] | – | – | tended to increase | tended to increase | tended to increase | tended to increase
CCCCCCCCCCCCCCCCNC(=O)N[C@@H](CCCNC(=N)N)C(=O)NCCCCCCCC.Cl [SZ210, (2S)-5-guanidino-2-(hexadecylcarbamoylamino)-N-octyl-pentanamide hydrochloride] | – | – | significant enhancement | significant enhancement | significant enhancement | significant enhancement
CCCCCCCCCCCCCCCCCCNC(=O)N[C@@H](CCCNC(=N)N)C(=O)NCCCCCCCCCCCC.Cl [SZ211, (2S)—N-dodecyl-5-guanidino-2-(octadecylcarbamoylamino)pentanamide hydrochloride] | – | – | significant enhancement | significant enhancement | significant enhancement | significant enhancement
CCCCCCCCCCCCNC(=O)N[C@@H](CCCNC(=N)N)C(=O)NCCCCCCCCCCCC.Cl [SZ212, (2S)—N-dodecyl-2-(dodecylcarbamoylamino)-5-guanidino-pentanamide hydrochloride] | – | – | significant enhancement | significant enhancement | significant enhancement | significant enhancement
CCCCCCCCCCCCCCCCNC(=O)N[C@@H](CCCCN)C(=O)NCCCCCCCC.Cl [SZ213, (2S)-6-amino-2-(hexadecylcarbamoylamino)-N-octyl-hexanamide hydrochloride] | – | – | significant enhancement | significant enhancement | a tendency toward increase | significant enhancement
CCCCCCCCCCCCCCCCNC(=O)N[C@@H](CCCCN)C(=O)NCCCCCCCCCCCC.Cl [SZ214, (2S)-6-amino-N-dodecyl-2-(hexadecylcarbamoylamino)hexanamide hydrochloride] | – | – | significant enhancement | significant enhancement | significant enhancement | significant enhancement
CCCCCCCCCCCCCCCCOC(=O)N[C@@H](CCCNC(=N)N)C(=O)NCCCCCCCC.Cl [SZ215, hexadecyl N-[(1S)-4-guanidino-1-(octylcarbamoyl)butyl]carbamate hydrochloride] | – | – | significant enhancement | a tendency toward increase | a tendency toward increase | significant enhancement

Reference: patent US20180311342A1, “IMMUNOSTIMULATING AGENT” (AJINOMOTO CO., INC., priority 2017, published 2018)
